Test results published in ChEMBL document CHEMBL3885861, “Open TG-GATES”.

Species on record: Rattus norvegicus
Test: Open TG-GATES - Regimen: Daily Repeat
Assay type: toxicity, organism-based, Sprague-Dawley
Design: regimen Daily Repeat, gender Male, age 6 weeks
Conditions: in vivo, po, route gavage; for APTT / Bas / Eos / Fbg / Hb / Ht / Lym / MCH / MCHC / MCV / Mono / Neu / PT / Plat / RBC / Ret / WBC: tissue Blood; for KIDNEY_L / KIDNEY_R / KIDNEY_TOTAL: tissue Kidney; for LIVER: tissue Liver; for A/G / ALP / ALT / AST / BUN / CRE / Ca / Cl / DBIL / GLC / IP / K / LDH / Na / PL / RALB / TBIL / TC / TG / TP / gamma-GTP: tissue Plasma
[1] = 300 mg/kg, 72 h, dose level Middle, time 3 day
[2] = 300 mg/kg, […], dose level Middle, time 7 day
[3] = 300 mg/kg, […], dose level Middle, time 14 day
[4] = 300 mg/kg, […], dose level Middle, time 28 day
[5] = 1000 mg/kg, 72 h, dose level High, time 3 day
[6] = 1000 mg/kg, […], dose level High, time 7 day
[7] = 1000 mg/kg, […], dose level High, time 14 day
[8] = 1000 mg/kg, […], dose level High, time 28 day

## CCN1CCCC1CNC(=O)c1cc(S(N)(=O)=O)ccc1OC (centres undefined) [SULPIRIDE]
[1]
  TERMINAL_BW: 234.7 g
  APTT: 16.7 s
  Bas: 0%
  Eos: 1%
  Fbg: 278.2 mg/dL
  Hb: 13.4 g/dL
  Ht: 40.9%
  Lym: 78.8%
  MCH: 20.6 pg
  MCHC: 32.8%
  MCV: 62.7 fL
  Mono: 3.4%
  Neu: 16.2%
  PT: 13.1 s
  Plat: 118.8 x10_4/uL
  RBC: 653.4 x10_4/ul
  Ret: 6.5%
  WBC: 94.6 x10_2/uL
  KIDNEY_L: 1 g
  KIDNEY_R: 1 g
  KIDNEY_TOTAL: 2.1 g
  LIVER: 11.7 g
  A/G: 0.9
  ALP: 1582.2 IU/L
  ALT: 44 IU/L
  AST: 65.8 IU/L
  BUN: 14.6 mg/dL
  CRE: 0.2 mg/dL
  Ca: 11.1 mg/dL
  Cl: 103.2 meq/L
  DBIL: 0.01 mg/dL
  GLC: 182 mg/dL
  IP: 8 mg/dL
  K: 4.4 meq/L
  LDH: 78.2 IU/L
  Na: 139.6 meq/L
  PL: 147.8 mg/dL
  RALB: 2.7 g/dL
  TBIL: 0.056 mg/dL
  TC: 78.4 mg/dL
  TG: 92.8 mg/dL
  TP: 5.7 g/dL
  gamma-GTP: 1 IU/L
[2]
  TERMINAL_BW: 265.3 g
  APTT: 16.9 s
  Bas: 0%
  Eos: 1%
  Fbg: 297.2 mg/dL
  Hb: 13.8 g/dL
  Ht: 41.8%
  Lym: 81.8%
  MCH: 20 pg
  MCHC: 33%
  MCV: 60.4 fL
  Mono: 2.2%
  Neu: 14.4%
  PT: 13.1 s
  Plat: 123.9 x10_4/uL
  RBC: 692.4 x10_4/ul
  Ret: 4.9%
  WBC: 113 x10_2/uL
  KIDNEY_L: 1.1 g
  KIDNEY_R: 1.1 g
  KIDNEY_TOTAL: 2.1 g
  LIVER: 12.5 g
  A/G: 0.8
  ALP: 1497.6 IU/L
  ALT: 46.8 IU/L
  AST: 65.8 IU/L
  BUN: 17 mg/dL
  CRE: 0.2 mg/dL
  Ca: 11 mg/dL
  Cl: 104.2 meq/L
  DBIL: 0.01 mg/dL
  GLC: 182.2 mg/dL
  IP: 8.1 mg/dL
  K: 4.2 meq/L
  LDH: 54.4 IU/L
  Na: 141.6 meq/L
  PL: 143 mg/dL
  RALB: 2.6 g/dL
  TBIL: 0.052 mg/dL
  TC: 70.4 mg/dL
  TG: 114.4 mg/dL
  TP: 5.8 g/dL
  gamma-GTP: 1 IU/L
[3]
  TERMINAL_BW: 329.3 g
  APTT: 16.8 s
  Bas: 0.2%
  Eos: 1%
  Fbg: 295.2 mg/dL
  Hb: 14.7 g/dL
  Ht: 44.1%
  Lym: 78.4%
  MCH: 20 pg
  MCHC: 33.4%
  MCV: 60 fL
  Mono: 2.2%
  Neu: 17.2%
  PT: 13.2 s
  Plat: 121.1 x10_4/uL
  RBC: 736 x10_4/ul
  Ret: 4.1%
  WBC: 102.3 x10_2/uL
  KIDNEY_L: 1.3 g
  KIDNEY_R: 1.2 g
  KIDNEY_TOTAL: 2.5 g
  LIVER: 14.2 g
  A/G: 0.9
  ALP: 1350 IU/L
  ALT: 37.4 IU/L
  AST: 62.8 IU/L
  BUN: 16 mg/dL
  CRE: 0.2 mg/dL
  Ca: 11.1 mg/dL
  Cl: 103 meq/L
  DBIL: 0.014 mg/dL
  GLC: 188.8 mg/dL
  IP: 7.8 mg/dL
  K: 3.9 meq/L
  LDH: 50.6 IU/L
  Na: 140.6 meq/L
  PL: 145.2 mg/dL
  RALB: 2.7 g/dL
  TBIL: 0.052 mg/dL
  TC: 71.8 mg/dL
  TG: 109 mg/dL
  TP: 5.8 g/dL
  gamma-GTP: 1 IU/L
[4]
  TERMINAL_BW: 375.2 g
  APTT: 17.4 s
  Bas: 0.2%
  Eos: 1.2%
  Fbg: 265 mg/dL
  Hb: 15.8 g/dL
  Ht: 45.8%
  Lym: 76.4%
  MCH: 19.4 pg
  MCHC: 34.5%
  MCV: 56.1 fL
  Mono: 1.8%
  Neu: 20%
  PT: 13.4 s
  Plat: 114.4 x10_4/uL
  RBC: 817 x10_4/ul
  Ret: 2.1%
  WBC: 109.3 x10_2/uL
  KIDNEY_L: 1.3 g
  KIDNEY_R: 1.4 g
  KIDNEY_TOTAL: 2.7 g
  LIVER: 14 g
  A/G: 0.8
  ALP: 1073.6 IU/L
  ALT: 43.8 IU/L
  AST: 65.2 IU/L
  BUN: 17 mg/dL
  CRE: 0.2 mg/dL
  Ca: 10.6 mg/dL
  Cl: 105.2 meq/L
  DBIL: 0.006 mg/dL
  GLC: 184.4 mg/dL
  IP: 6.5 mg/dL
  K: 3.8 meq/L
  LDH: 56.2 IU/L
  Na: 142 meq/L
  PL: 125.4 mg/dL
  RALB: 2.7 g/dL
  TBIL: 0.062 mg/dL
  TC: 63.2 mg/dL
  TG: 84.4 mg/dL
  TP: 6.1 g/dL
  gamma-GTP: 1 IU/L
[5]
  TERMINAL_BW: 230.5 g
  APTT: 16.8 s
  Bas: 0%
  Eos: 1.4%
  Fbg: 274.2 mg/dL
  Hb: 14.1 g/dL
  Ht: 42.6%
  Lym: 74.8%
  MCH: 20.7 pg
  MCHC: 33.1%
  MCV: 62.5 fL
  Mono: 2.8%
  Neu: 20.6%
  PT: 13.2 s
  Plat: 128.6 x10_4/uL
  RBC: 682.6 x10_4/ul
  Ret: 4.8%
  WBC: 104.1 x10_2/uL
  KIDNEY_L: 1 g
  KIDNEY_R: 1 g
  KIDNEY_TOTAL: 2 g
  LIVER: 11.1 g
  A/G: 0.8
  ALP: 1652 IU/L
  ALT: 49.2 IU/L
  AST: 62.4 IU/L
  BUN: 16.4 mg/dL
  CRE: 0.2 mg/dL
  Ca: 11.3 mg/dL
  Cl: 103.4 meq/L
  DBIL: 0.01 mg/dL
  GLC: 174.6 mg/dL
  IP: 8.3 mg/dL
  K: 4.5 meq/L
  LDH: 73.8 IU/L
  Na: 140 meq/L
  PL: 161 mg/dL
  RALB: 2.7 g/dL
  TBIL: 0.056 mg/dL
  TC: 82.2 mg/dL
  TG: 112 mg/dL
  TP: 5.7 g/dL
  gamma-GTP: 1 IU/L
[6]
  TERMINAL_BW: 262.7 g
  APTT: 17.8 s
  Bas: 0%
  Eos: 1.2%
  Fbg: 288 mg/dL
  Hb: 14 g/dL
  Ht: 42.2%
  Lym: 76.6%
  MCH: 20.8 pg
  MCHC: 33.3%
  MCV: 62.6 fL
  Mono: 3.2%
  Neu: 18.6%
  PT: 13.3 s
  Plat: 125.3 x10_4/uL
  RBC: 673.8 x10_4/ul
  Ret: 4.7%
  WBC: 87.1 x10_2/uL
  KIDNEY_L: 1.1 g
  KIDNEY_R: 1.2 g
  KIDNEY_TOTAL: 2.3 g
  LIVER: 11.9 g
  A/G: 0.9
  ALP: 1461.2 IU/L
  ALT: 55 IU/L
  AST: 74.2 IU/L
  BUN: 16.4 mg/dL
  CRE: 0.2 mg/dL
  Ca: 11 mg/dL
  Cl: 103.2 meq/L
  DBIL: 0.006 mg/dL
  GLC: 171.6 mg/dL
  IP: 8 mg/dL
  K: 4.3 meq/L
  LDH: 62 IU/L
  Na: 141 meq/L
  PL: 146 mg/dL
  RALB: 2.7 g/dL
  TBIL: 0.05 mg/dL
  TC: 72.6 mg/dL
  TG: 94 mg/dL
  TP: 5.7 g/dL
  gamma-GTP: 1 IU/L
[7]
  TERMINAL_BW: 307.6 g
  APTT: 16.8 s
  Bas: 0.2%
  Eos: 1%
  Fbg: 271 mg/dL
  Hb: 14.9 g/dL
  Ht: 44.3%
  Lym: 72.8%
  MCH: 20.1 pg
  MCHC: 33.6%
  MCV: 59.8 fL
  Mono: 2.2%
  Neu: 23%
  PT: 13.2 s
  Plat: 114.6 x10_4/uL
  RBC: 742 x10_4/ul
  Ret: 3.8%
  WBC: 103.9 x10_2/uL
  KIDNEY_L: 1.2 g
  KIDNEY_R: 1.2 g
  KIDNEY_TOTAL: 2.3 g
  LIVER: 12.6 g
  A/G: 0.9
  ALP: 1425.6 IU/L
  ALT: 41.8 IU/L
  AST: 68.2 IU/L
  BUN: 16.8 mg/dL
  CRE: 0.2 mg/dL
  Ca: 11 mg/dL
  Cl: 102.6 meq/L
  DBIL: 0.008 mg/dL
  GLC: 181 mg/dL
  IP: 7.9 mg/dL
  K: 3.9 meq/L
  LDH: 54 IU/L
  Na: 140.6 meq/L
  PL: 148.4 mg/dL
  RALB: 2.7 g/dL
  TBIL: 0.056 mg/dL
  TC: 80.8 mg/dL
  TG: 83.4 mg/dL
  TP: 5.9 g/dL
  gamma-GTP: 1 IU/L
[8]
  TERMINAL_BW: 370.8 g
  APTT: 17.8 s
  Bas: 0%
  Eos: 1.6%
  Fbg: 278.4 mg/dL
  Hb: 15.8 g/dL
  Ht: 45.5%
  Lym: 80%
  MCH: 19.3 pg
  MCHC: 34.7%
  MCV: 55.5 fL
  Mono: 2%
  Neu: 15%
  PT: 13.3 s
  Plat: 111.2 x10_4/uL
  RBC: 818.8 x10_4/ul
  Ret: 2.5%
  WBC: 133.5 x10_2/uL
  KIDNEY_L: 1.2 g
  KIDNEY_R: 1.3 g
  KIDNEY_TOTAL: 2.5 g
  LIVER: 13.4 g
  A/G: 0.8
  ALP: 1094.8 IU/L
  ALT: 42.6 IU/L
  AST: 70.4 IU/L
  BUN: 18 mg/dL
  CRE: 0.3 mg/dL
  Ca: 10.6 mg/dL
  Cl: 103 meq/L
  DBIL: 0.012 mg/dL
  GLC: 169 mg/dL
  IP: 7.2 mg/dL
  K: 3.9 meq/L
  LDH: 55.6 IU/L
  Na: 141.8 meq/L
  PL: 136.2 mg/dL
  RALB: 2.8 g/dL
  TBIL: 0.062 mg/dL
  TC: 66.2 mg/dL
  TG: 87.2 mg/dL
  TP: 6.3 g/dL
  gamma-GTP: 1 IU/L
